For one assay, the system named is mouse vas deferens (MVD). Particulars: literature comparison of GPI and MVD preparations; cited from earlier work.
The next assay concerns anesthetized cats. Description: Cardiovascular effects in cats anesthetized with pentobarbital (blood pressure, heart rate, vasomotor reflex elicited by carotis occlusion). It is filed as in vivo. The protocol:
In addition to the effects on the blood pressure and heart rate, the actions on the vasomotor reflex elicited by carotis occlusion, were also studied. […] The duration of the former effects was 20-25 min., while that of the latter was 40-60 min. […] It is noteworthy that the reference compound morphine […] hypotension of similar magnitude produced by 0.1 mg/kg of peptides only in doses higher than 1.0 mg/kg (Table 2).
(a) Cats of both sexes, weighing 3000-4000 g, anesthetized with 35 mg/kg pentobarbital, i.p.
(b) C.O.: Inhibition of vasomotor reflex elicited by carotis occlusion;

Square brackets hold non-standard residues; d marks the D form. Ends that are not written are not given here.

Regarding `CN1CC[C@]23c4c5ccc(O)c4O[C@H]2[C@@H](O)C=C[C@H]3[C@H]1C5` [Morphine, morphine], the “Activity on MVD compared with GPI (in words)” value with mouse vas deferens (MVD) was “higher activity on GPI”. In addition, in the assay with anesthetized cats (0.2 mg/kg i.v.), the “Decrease of heart rate” value is recorded as “.phi”, the “Fall in blood pressure” value stood at 6.7 ± 2.1 mm Hg and the “Inhibition of C.O. (vasomotor reflex elicited by carotis occlusion)” value (shortened to “Inhibition”) is reported as “.phi”. In addition, in the assay with anesthetized cats (1.0 mg/kg i.v.), the “Decrease of heart rate” value was found to be 10.2 ± 2.3 beat/min, the “Fall in blood pressure” value was 16.7 ± 3.2 mm Hg and the “Inhibition” value was “+ (inhibition is smaller than 50%)”. In addition, in the assay with anesthetized cats (5.0 mg/kg i.v.), the “Decrease of heart rate” value came out at 16.7 ± 3.5 beat/min, the “Fall in blood pressure” value is on record as 33.6 ± 6.7 mm Hg and the “Inhibition” value is “++ (inhibition is higher than 50%)”. Moreover, in the assay on anesthetized cats (i.v.), the “Dose eliciting hypotension of similar magnitude to that produced by 0.1 mg/kg of peptides” value was “higher than 1.0 mg/kg”.
On to Tyr-D-Ala-Gly-MePhe-Met(O)-ol, for which, in the assay on mouse vas deferens (MVD), the “Activity on MVD compared with GPI (in words)” value is “twice as active on GPI as on MVD”.
Tyr-D-Ala-Gly-Phe-D-Leu: the “Activity on MVD compared with GPI (in words)” value with mouse vas deferens (MVD) is “more active on MVD than on GPI”.
Regarding Y[dM]GFP-NH2, the “Activity on MVD compared with GPI (in words)” value with mouse vas deferens (MVD) is listed as “the same level of activity on both preparations”.
Consider “β-Endorphine: β-Endorphine of natural occurrence (a 31-membered polypeptide) (YGGFMTSEKSQTPLVTLFKNAIIKNAYKKGE; Beta-endorphin; UniProt P01189 237-267, looked up)”, for which the “Activity on MVD compared with GPI (in words)” value in the assay on mouse vas deferens (MVD) is “equally active on GPI and MVD”.

(Values after US4339440A, “Enkephalin analogs and a process for the preparation thereof” (priority 1980, dated 1982).)
